In ChEMBL document CHEMBL1777727, “The role of the 4''-hydroxyl on motilin agonist potency in the 9-dihydroerythromycin series” (Bioorg Med Chem Lett, 2011):
In brackets after ≈: the same amount, converted by molar mass.

Experiments:
[1] = molecular target: Motilin receptor (Oryctolagus cuniculus) (UniProt A5A4K8); assay: Agonist activity at motilin receptor in rabbit smooth muscle assessed as tachyphylaxis at EC90 concentration after 4th dose; format: functional
Streptococcus pneumoniae = assay: Antimicrobial activity against erythromycin-sensitive Streptococcus pneumoniae ATCC 6301; format: functional
Motilin receptor = Motilin receptor (Oryctolagus cuniculus, UniProt A5A4K8); assay: Agonist activity at motilin receptor in rabbit smooth muscle assessed as maximal possible tissue contraction; format: functional
Motilin receptor, sequence (A5A4K8 whole entry): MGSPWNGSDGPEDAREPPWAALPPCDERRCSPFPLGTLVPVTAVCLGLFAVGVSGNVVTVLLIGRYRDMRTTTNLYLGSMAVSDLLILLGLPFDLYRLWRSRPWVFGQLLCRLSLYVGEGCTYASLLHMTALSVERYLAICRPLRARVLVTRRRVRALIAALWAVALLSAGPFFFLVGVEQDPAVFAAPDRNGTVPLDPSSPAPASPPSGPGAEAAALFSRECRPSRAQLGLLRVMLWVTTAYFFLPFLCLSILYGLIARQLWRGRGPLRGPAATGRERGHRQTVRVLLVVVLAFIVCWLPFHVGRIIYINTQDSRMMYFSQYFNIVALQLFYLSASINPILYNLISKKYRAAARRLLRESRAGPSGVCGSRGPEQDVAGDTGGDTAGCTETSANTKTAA

hERG (KCNH2) [2] = molecular target: T1, hERG (KCNH2) (Homo sapiens, UniProt Q12809); assay: Inhibition of human ERG at 30 uM
T1 sequence (Q12809 whole entry): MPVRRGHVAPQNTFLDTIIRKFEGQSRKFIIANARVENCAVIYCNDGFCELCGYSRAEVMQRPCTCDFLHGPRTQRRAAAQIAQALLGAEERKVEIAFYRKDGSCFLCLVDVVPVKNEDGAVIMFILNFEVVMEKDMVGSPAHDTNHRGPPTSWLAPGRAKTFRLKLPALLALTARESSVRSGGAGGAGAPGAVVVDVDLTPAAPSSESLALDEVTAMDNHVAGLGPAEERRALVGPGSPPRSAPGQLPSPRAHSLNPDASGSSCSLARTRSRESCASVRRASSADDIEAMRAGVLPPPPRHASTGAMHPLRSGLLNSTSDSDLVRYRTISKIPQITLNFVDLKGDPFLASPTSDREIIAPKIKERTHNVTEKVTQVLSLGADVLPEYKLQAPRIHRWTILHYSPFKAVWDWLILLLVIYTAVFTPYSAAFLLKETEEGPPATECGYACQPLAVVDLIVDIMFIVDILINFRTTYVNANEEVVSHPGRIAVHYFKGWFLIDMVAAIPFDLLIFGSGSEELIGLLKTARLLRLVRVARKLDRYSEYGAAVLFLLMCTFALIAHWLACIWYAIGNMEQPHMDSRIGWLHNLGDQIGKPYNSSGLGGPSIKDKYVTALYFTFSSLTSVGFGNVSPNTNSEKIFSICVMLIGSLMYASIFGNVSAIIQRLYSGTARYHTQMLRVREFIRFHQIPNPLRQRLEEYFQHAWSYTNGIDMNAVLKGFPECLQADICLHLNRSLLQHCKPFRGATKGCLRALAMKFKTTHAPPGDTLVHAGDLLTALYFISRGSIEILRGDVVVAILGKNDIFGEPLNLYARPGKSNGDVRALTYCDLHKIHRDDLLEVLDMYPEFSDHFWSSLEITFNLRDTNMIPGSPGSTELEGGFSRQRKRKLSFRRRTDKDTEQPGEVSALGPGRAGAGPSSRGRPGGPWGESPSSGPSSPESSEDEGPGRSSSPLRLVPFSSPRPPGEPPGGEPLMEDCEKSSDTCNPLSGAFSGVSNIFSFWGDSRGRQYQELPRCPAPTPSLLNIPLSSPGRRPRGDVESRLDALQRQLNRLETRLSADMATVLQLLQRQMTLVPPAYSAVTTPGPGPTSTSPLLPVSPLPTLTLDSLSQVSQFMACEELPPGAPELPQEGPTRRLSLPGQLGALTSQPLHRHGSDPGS

hERG (KCNH2) [3] = molecular target: T1, hERG (KCNH2); assay: Inhibition of human ERG at 300 uM
[4] = molecular target: Voltage-gated inwardly rectifying potassium channel KCNH2 (Homo sapiens, UniProt Q12809); assay: Inhibition of human ERG
Voltage-gated inwardly rectifying potassium channel KCNH2, sequence (Q12809 whole entry): as above

Motilin receptor (Oryctolagus cuniculus), sequence (A5A4K8 as listed by the source): as the sequence (A5A4K8 whole entry) above

Compound	Activity [1] [%]	MIC (Streptococcus pneumoniae) [µg/mL]	EC50 (Motilin receptor) [nM]	inhibition at 30 µM (hERG (KCNH2) [2]) [%]	inhibition at 300 µM (hERG (KCNH2) [3]) [%]	IC50 [4] [µM]
CC[C@H]1OC(=O)[C@H](C)[C@@H](O[C@H]2C[C@@](C)(OC)C[C@H](C)O2)[C@H](C)[C@@H](O[C@@H]2O[C@H](C)C[C@H](N(C)C(C)C)[C@H]2O)[C@](C)(O)C[C@@H](C)[C@H](O)[C@H](C)[C@@H](O)[C@]1(C)O	88	64 (≈ 85.6 µM)	59	74		
CC[C@H]1OC(=O)[C@H](C)[C@@H](O[C@H]2C[C@@](C)(OC)[C@@H](O)[C@H](C)O2)[C@H](C)[C@@H](O[C@@H]2O[C@H](C)C[C@H](N(C)C(C)C)[C@H]2O)[C@]2(C)CC(C)=C(O2)[C@H](C)C(=O)[C@]1(C)OC	22					
CC[C@H]1OC(=O)[C@H](C)[C@@H](O[C@H]2C[C@@](C)(OC)C[C@H](C)O2)[C@H](C)[C@@H](O[C@@H]2O[C@H](C)C[C@H](N(C)C(C)C)[C@H]2O)[C@](C)(O)C[C@@H](C)[C@H](OCC(N)=O)[C@H](C)[C@@H](O)[C@]1(C)O		> 128	36	28	86	
CC[C@H]1OC(=O)[C@H](C)[C@@H](O[C@H]2C[C@@](C)(OC)CC(C)O2)[C@H](C)[C@@H](O[C@@H]2O[C@H](C)C[C@H](N(C)CC)[C@H]2O)C2(C)CC(C)=C(O2)[C@H](C)[C@@H](O)[C@H]1C (single isomer, unassigned)	9					
CC[C@H]1OC(=O)[C@H](C)[C@@H](O[C@H]2C[C@@](C)(OC)C[C@H](C)O2)[C@H](C)[C@@H](O[C@@H]2O[C@H](C)C[C@H](N(C)C(C)C)[C@H]2O)[C@](C)(O)C[C@@H](C)[C@H](OCC(=O)N(C)C)[C@H](C)[C@@H](O)[C@]1(C)O		128 (≈ 154 µM)	190	50	100	
CC[C@H]1OC(=O)[C@H](C)[C@@H](O[C@H]2C[C@@](C)(OC)[C@@H](O)[C@H](C)O2)[C@H](C)[C@@H](O[C@@H]2O[C@H](C)C[C@H](N(C)C(C)C)[C@H]2O)[C@](C)(O)C[C@@H](C)[C@H](OCC(N)=O)[C@H](C)[C@@H](O)[C@]1(C)O					29	
CC[C@H]1OC(=O)[C@H](C)[C@@H](O[C@H]2C[C@@](C)(OC)C[C@H](C)O2)[C@H](C)[C@@H](O[C@@H]2O[C@H](C)C[C@H](N(C)CC(=O)NC)[C@H]2O)[C@](C)(O)C[C@@H](C)[C@H](O)[C@H](C)[C@@H](O)[C@]1(C)O			> 5000			
CC[C@H]1OC(=O)[C@H](C)[C@@H](O[C@H]2C[C@@](C)(OC)C[C@H](C)O2)[C@H](C)[C@@H](O[C@@H]2O[C@H](C)C[C@H](N(C)C(C)C)[C@H]2O)[C@](C)(O)C[C@@H](C)[C@H](OCC(=O)NC)[C@H](C)[C@@H](O)[C@]1(C)O		128 (≈ 156 µM)	17	57	97	30
CC[C@H]1OC(=O)[C@H](C)[C@@H](O[C@H]2C[C@@](C)(OC)C[C@H](C)O2)[C@H](C)[C@@H](O[C@@H]2O[C@H](C)C[C@H](N(C)C[C@H](C)O)[C@H]2O)[C@](C)(O)C[C@@H](C)[C@H](O)[C@H](C)[C@@H](O)[C@]1(C)O		128 (≈ 168 µM)	140	89	100	
CC[C@H]1OC(=O)[C@H](C)[C@@H](O[C@H]2C[C@@](C)(OC)[C@@H](O)[C@H](C)O2)[C@H](C)[C@@H](O[C@@H]2O[C@H](C)C[C@H](N(C)C(C)C)[C@H]2O)[C@](C)(O)C[C@@H](C)[C@H](OCC(=O)N(C)C)[C@H](C)[C@@H](O)[C@]1(C)O					51	
CC[C@H]1OC(=O)[C@H](C)[C@@H](O[C@H]2C[C@@](C)(OC)C[C@H](C)O2)[C@H](C)[C@@H](O[C@@H]2O[C@H](C)C[C@H](N(C)C3CCC3)[C@H]2O)[C@](C)(O)C[C@@H](C)[C@H](O)[C@H](C)[C@@H](O)[C@]1(C)O		> 128	120	92	100	

Continued, in another order:

Activity [1] [%]	MIC (Streptococcus pneumoniae) [µg/mL]	EC50 (Motilin receptor) [nM]	Compound	inhibition at 30 µM (hERG (KCNH2) [2]) [%]	inhibition at 300 µM (hERG (KCNH2) [3]) [%]	IC50 [4] [µM]
94	2 (≈ 2.67 µM)	63	CC[C@H]1OC(=O)[C@H](C)[C@@H](O[C@H]2C[C@@](C)(OC)C[C@H](C)O2)[C@H](C)[C@@H](O[C@@H]2O[C@H](C)C[C@H](N(C)CCO)[C@H]2O)[C@](C)(O)C[C@@H](C)[C@H](O)[C@H](C)[C@@H](O)[C@]1(C)O	68		
		360	CC[C@H]1OC(=O)[C@H](C)[C@@H](O[C@H]2C[C@@](C)(OC)[C@@H](O)[C@H](C)O2)[C@H](C)[C@@H](O[C@@H]2O[C@H](C)C[C@H](N(C)C[C@H](C)O)[C@H]2O)[C@](C)(O)C[C@@H](C)[C@H](O)[C@H](C)[C@@H](O)[C@]1(C)O			
		100	CC[C@H]1OC(=O)[C@H](C)[C@@H](O[C@H]2C[C@@](C)(OC)[C@@H](O)[C@H](C)O2)[C@H](C)[C@@H](O[C@@H]2O[C@H](C)C[C@H](N(C)CC(C)(C)O)[C@H]2O)[C@](C)(O)C[C@@H](C)[C@H](O)[C@H](C)[C@@H](O)[C@]1(C)O			
	128 (≈ 165 µM)	24	CC[C@H]1OC(=O)[C@H](C)[C@@H](O[C@H]2C[C@@](C)(OC)C[C@H](C)O2)[C@H](C)[C@@H](O[C@@H]2O[C@H](C)C[C@H](N(C)CC(C)(C)O)[C@H]2O)[C@](C)(O)C[C@@H](C)[C@H](O)[C@H](C)[C@@H](O)[C@]1(C)O	86	100	
		350	CC[C@H]1OC(=O)[C@H](C)[C@@H](O[C@H]2C[C@@](C)(OC)[C@@H](O)[C@H](C)O2)[C@H](C)[C@@H](O[C@@H]2O[C@H](C)C[C@H](N(C)C3CCC3)[C@H]2O)[C@](C)(O)C[C@@H](C)[C@H](O)[C@H](C)[C@@H](O)[C@]1(C)O			
		210	CC[C@H]1OC(=O)[C@H](C)[C@@H](O[C@H]2C[C@@](C)(OC)[C@@H](O)[C@H](C)O2)[C@H](C)[C@@H](O[C@@H]2O[C@H](C)C[C@H](N(C)CCO)[C@H]2O)[C@](C)(O)C[C@@H](C)[C@H](O)[C@H](C)[C@@H](O)[C@]1(C)O			
